Test results as given in publication PMC2849849 (Neuropharmacology, 2010).
Values joined by “and” are separate entries in the source; they are usually repeats but may differ in a detail not shown here. Equal values may be shown once. “Also recorded” adds a separate entry of the source. Where a name gives a salt, the structure may show the parent alone. Read-outs that look alike come from different tables or passages of the source.

Tests used:
hα7-nAChR = hα7-nAChR (Homo sapiens, UniProt P36544); assay: cell-based; format: cell-based; conditions: for EC50: read-out: EC50 α7; for Emax: GH4-C1, read-out: Efficacy α7
hα7-nAChR, sequence (P36544 23-502): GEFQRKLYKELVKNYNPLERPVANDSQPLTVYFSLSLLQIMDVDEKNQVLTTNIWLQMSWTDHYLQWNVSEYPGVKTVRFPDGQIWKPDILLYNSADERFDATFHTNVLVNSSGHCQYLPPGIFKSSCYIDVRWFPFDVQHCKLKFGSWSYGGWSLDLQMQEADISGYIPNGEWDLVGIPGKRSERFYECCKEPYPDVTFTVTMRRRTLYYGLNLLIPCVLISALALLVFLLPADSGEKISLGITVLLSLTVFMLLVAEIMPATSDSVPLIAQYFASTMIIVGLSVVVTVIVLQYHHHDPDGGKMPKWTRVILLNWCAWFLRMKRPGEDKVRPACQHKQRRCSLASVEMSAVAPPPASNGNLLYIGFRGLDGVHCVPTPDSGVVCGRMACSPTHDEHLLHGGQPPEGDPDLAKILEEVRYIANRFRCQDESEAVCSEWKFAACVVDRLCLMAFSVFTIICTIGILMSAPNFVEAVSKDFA

α4L9'A knock-in mice [1] = assay: Hypothermia in α4L9'A knock-in mice; format: in vivo, mouse; conditions: for Physiological effect α4L9'Aβ2*: ip
α6β2*-nAChR [2] = molecular target: T1, α6β2*-nAChR (Mus musculus, UniProt Q9ERK7+Q9R0W9); assay: α-CtxMII-sensitive [3H]-dopamine release from striatal synaptosomes; format: biochemical
T1 sequence (Q9R0W9 31-494): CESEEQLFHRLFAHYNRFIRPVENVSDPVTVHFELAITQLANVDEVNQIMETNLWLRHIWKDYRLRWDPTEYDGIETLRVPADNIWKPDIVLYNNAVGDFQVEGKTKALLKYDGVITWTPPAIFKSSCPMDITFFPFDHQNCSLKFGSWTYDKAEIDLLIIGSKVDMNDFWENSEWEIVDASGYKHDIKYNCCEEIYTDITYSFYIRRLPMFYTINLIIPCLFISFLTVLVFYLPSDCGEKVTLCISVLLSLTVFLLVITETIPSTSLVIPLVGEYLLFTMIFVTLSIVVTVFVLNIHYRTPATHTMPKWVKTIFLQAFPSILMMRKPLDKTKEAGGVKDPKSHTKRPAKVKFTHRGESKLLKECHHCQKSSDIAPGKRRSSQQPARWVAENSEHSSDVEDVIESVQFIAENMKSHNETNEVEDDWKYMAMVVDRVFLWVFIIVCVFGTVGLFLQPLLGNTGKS
T1 sequence (Q9ERK7 26-501): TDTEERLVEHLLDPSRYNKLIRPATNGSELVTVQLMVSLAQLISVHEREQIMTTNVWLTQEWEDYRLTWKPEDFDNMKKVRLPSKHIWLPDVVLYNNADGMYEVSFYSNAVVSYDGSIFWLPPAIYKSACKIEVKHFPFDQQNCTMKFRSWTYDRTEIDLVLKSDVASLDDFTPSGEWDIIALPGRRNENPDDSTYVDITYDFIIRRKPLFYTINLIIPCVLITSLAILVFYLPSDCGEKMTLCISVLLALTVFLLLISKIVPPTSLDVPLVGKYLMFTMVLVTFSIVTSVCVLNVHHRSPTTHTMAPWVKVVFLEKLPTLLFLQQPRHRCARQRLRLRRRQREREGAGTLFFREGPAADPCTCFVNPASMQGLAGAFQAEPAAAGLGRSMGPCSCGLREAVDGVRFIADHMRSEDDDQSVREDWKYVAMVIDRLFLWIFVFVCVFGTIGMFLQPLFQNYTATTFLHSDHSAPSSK
T1 sequence (Q8BMN3 31-464 partner): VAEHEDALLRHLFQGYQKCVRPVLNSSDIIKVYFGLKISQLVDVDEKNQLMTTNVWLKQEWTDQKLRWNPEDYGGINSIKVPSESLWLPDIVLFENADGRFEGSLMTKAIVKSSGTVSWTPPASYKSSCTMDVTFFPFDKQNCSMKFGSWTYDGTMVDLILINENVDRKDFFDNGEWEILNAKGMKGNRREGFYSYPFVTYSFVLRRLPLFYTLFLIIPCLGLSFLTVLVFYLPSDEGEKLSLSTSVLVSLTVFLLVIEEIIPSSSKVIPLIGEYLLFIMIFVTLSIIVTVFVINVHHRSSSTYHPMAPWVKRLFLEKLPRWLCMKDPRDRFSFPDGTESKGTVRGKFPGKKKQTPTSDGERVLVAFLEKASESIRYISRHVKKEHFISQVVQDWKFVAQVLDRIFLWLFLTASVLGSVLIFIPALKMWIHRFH

α4β2*-nAChR [3] = molecular target: T2, α4β2*-nAChR (Mus musculus, UniProt O70174+Q9ERK7); assay: α-CtxMII-resistant [3H]-dopamine release from striatal synaptosomes; format: biochemical
T2 sequence (O70174 31-629): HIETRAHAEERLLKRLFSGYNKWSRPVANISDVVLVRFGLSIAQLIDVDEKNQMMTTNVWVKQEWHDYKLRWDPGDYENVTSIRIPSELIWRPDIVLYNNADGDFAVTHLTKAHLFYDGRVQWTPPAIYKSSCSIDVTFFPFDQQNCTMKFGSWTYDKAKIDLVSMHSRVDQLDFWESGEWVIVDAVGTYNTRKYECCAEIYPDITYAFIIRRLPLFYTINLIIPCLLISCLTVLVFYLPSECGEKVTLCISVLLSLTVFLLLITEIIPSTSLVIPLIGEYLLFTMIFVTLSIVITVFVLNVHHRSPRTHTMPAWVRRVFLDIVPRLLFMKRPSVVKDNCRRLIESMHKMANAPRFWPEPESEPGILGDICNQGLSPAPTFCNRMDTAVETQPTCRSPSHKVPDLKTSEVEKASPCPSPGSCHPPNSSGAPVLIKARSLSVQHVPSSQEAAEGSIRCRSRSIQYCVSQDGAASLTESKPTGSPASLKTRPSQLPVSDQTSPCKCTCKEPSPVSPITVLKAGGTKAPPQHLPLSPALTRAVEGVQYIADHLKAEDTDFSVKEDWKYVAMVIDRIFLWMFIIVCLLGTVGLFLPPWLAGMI
T2 sequence (Q9ERK7 26-501): as the sequence (Q9ERK7 26-501) above

α3β4*-nAChR = α3β4*-nAChR (Mus musculus, UniProt Q8R493+Q8R4G9); assay: [3H]-ACh release from IPN synaptosomes; format: biochemical; conditions: for Functional character at α3β4*: [3H]-ACh release from IPN synaptosomes
α3β4*-nAChR, sequence (Q8R4G9 26-499): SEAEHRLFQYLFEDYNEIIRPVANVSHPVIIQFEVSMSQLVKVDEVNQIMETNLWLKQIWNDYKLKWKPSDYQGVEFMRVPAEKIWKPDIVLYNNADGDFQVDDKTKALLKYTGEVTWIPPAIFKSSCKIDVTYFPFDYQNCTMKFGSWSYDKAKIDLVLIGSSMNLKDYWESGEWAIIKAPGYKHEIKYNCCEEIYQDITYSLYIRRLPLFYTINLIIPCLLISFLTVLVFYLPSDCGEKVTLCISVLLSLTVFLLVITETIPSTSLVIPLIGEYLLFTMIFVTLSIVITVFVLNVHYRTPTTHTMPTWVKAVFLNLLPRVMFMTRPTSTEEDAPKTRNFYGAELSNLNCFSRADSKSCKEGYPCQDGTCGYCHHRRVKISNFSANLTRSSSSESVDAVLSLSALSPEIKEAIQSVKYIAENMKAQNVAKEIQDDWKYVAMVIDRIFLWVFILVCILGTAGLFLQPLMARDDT
α3β4*-nAChR, sequence (Q8R493 21-495): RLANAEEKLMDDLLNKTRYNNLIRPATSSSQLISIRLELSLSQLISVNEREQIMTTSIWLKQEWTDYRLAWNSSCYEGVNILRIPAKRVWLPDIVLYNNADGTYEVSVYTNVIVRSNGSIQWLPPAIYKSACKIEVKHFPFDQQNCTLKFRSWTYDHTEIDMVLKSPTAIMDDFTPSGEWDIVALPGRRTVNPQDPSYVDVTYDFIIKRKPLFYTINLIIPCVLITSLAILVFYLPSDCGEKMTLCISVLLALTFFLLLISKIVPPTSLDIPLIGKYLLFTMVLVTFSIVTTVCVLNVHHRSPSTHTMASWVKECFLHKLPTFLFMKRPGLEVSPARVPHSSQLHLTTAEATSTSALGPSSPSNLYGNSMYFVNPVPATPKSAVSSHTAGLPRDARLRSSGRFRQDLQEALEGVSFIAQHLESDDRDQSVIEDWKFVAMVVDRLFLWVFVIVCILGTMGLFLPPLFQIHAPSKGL

α6L9'S transgenic mice [4] = conditions: ref Drenan et al, 2008, cited from earlier work; for Physiological effect α6L9'Sβ2*: locomotor, ip, dose in parentheses mg/kg
α6L9'S transgenic mice [5] = assay: Locomotor activity in α6L9'S transgenic mice; format: in vivo, mouse; conditions: for Physiological effect α6L9'Sβ2*: locomotor, ip, dose in parentheses mg/kg
α7-nAChR = α7-nAChR (Mus musculus, UniProt P49582); assay: biochemical; format: binding
α7-nAChR, sequence (P49582 23-502): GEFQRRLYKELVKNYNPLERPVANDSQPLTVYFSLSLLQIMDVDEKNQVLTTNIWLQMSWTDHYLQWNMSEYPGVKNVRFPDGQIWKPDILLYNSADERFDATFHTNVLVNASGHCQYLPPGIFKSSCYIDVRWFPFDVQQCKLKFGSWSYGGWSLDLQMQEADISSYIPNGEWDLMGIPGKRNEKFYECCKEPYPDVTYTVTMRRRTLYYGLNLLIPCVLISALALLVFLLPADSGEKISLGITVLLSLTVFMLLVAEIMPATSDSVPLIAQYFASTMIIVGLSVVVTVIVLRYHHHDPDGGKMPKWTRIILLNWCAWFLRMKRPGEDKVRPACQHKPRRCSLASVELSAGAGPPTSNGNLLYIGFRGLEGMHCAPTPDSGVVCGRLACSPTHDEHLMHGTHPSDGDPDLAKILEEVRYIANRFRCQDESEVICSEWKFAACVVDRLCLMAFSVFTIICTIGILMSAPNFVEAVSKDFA

α4L9'A knock-in mice [6] = conditions: ref Tapper et al, 2007, cited from earlier work; for Physiological effect α4L9'Aβ2*: ip, dose in parentheses mg/kg
α6L9'S mice = conditions: 0.1 mg/kg; unpublished data
α4β2*-nAChR [7] = molecular target: T2, α4β2*-nAChR; conditions: ref Salminen et al, 2004; cited from earlier work
α6β2*-nAChR [8] = molecular target: T1, α6β2*-nAChR; conditions: ref Salminen et al, 2004; cited from earlier work
[9] = read-out: Ki α4β2* (1st number, [3H]DA release assay, marked #)
[10] = dose in parentheses mg/kg, block = block of low dose nicotine
[11] = EC50 α6β2*, activation, α-CtxMII-sensitive DA release
[12] = EC50 α4β2* (1st number, [3H]DA release assay), activation, curve fit
[13] = Ki α4β2* (1st number, [3H]DA release assay, marked #)
[14] = EC50 α3β4*, activation, [3H]ACh release

2-((5-chloropyridin-3-yloxy)methyl)quinuclidine [Compound 11]
Efficacy α7 (hα7-nAChR): 31% and 31 ± 12% | EC50 (hα7-nAChR; peak current, GH4C1 cells): 4.26 ± 0.73 µM | Physiological effect α4L9'Aβ2* (α4L9'A knock-in mice [1]; mouse, in vivo): did not have intrinsic activity, nor did they block the effect of nicotine; also recorded: inconclusive | Efficacy α6β2* (α6β2*-nAChR [2]): -100 ± 18% | Reduction of antagonist potency at α6β2* relative to Compound 5 (α6β2*-nAChR [2]): 2 fold | Ki (α6β2*-nAChR [2]; read-out: Ki α6β2* (marked #)): 0.91 ± 0.656 µM | Efficacy α4β2* (first number, [3H]DA release) (α4β2*-nAChR [3]): -100 ± 9% | Reduction of antagonist potency at α4β2* relative to Compound 5 (α4β2*-nAChR [3]): 16 fold | Ki (α4β2*-nAChR [3]; [9]): 0.49 µM | Efficacy α3β4* (α3β4*-nAChR): 8% and 8 ± 2% | Functional character at α3β4* (α3β4*-nAChR): partial agonists | EC50 (α3β4*-nAChR; read-out: EC50 α3β4*, activation, [3H]ACh release): 7 ± 1 µM

c1cncc(C2CC3CCN2CC3)c1 (racemic) [Compound 1, (±)-2-(-3-pyridinyl)-1-azabicyclo[2.2.2]octane]
Temperature drop in α4L9'A mice (α4L9'A knock-in mice [1]; 0.03 mg/kg i.p.): ~8 ° | Physiological effect α4L9'Aβ2* (α4L9'A knock-in mice [1]; mouse, in vivo): hypothermia (0.03) | Physiological effect α6L9'Sβ2* (α6L9'S transgenic mice [4]): locomotor activation; also recorded: activation (0.01) ^2 | Increase in activity over saline in α6L9'S mice (α6L9'S transgenic mice [5]; 0.01 mg/kg i.p.): ~290%

c1cncc(C2C3CCN2CC3)c1 (centres unmarked) [Compound 2, 7-(pyridin-3-yl)-1-azabicyclo[2.2.1]heptane]
Functional character at α7 (hα7-nAChR): full agonist | Emax (hα7-nAChR): 108% | Physiological effect α4L9'Aβ2* (α4L9'A knock-in mice [1]; [10]): elicited responses; also recorded: hypothermia (0.03) | EC50 (α6β2*-nAChR [2]; [11]): 0.05 ± 0.023 µM | Functional character at α6β2* (α6β2*-nAChR [2]; α-CtxMII-sensitive DA release): full agonist | EC50 (α4β2*-nAChR [3]; [12]): 1.04 ± 0.28 µM | Ki (α7-nAChR): 0.0329 ± 0.0013 µM | Physiological effect α6L9'Sβ2* (α6L9'S transgenic mice [5]): elicited responses; also recorded: locomotor activation; also recorded: activation (0.1) | EC50 (α3β4*-nAChR): 4.2 ± 0.5 µM | Functional character at α3β4* (α3β4*-nAChR): full or nearly full agonists

c1cncc(C2CCC3CCN2CC3)c1 (centres unmarked) [Compound 3, 2-(pyridine-3-yl)-1-azabicyclo[3.2.2]nonane]
Functional character at α7 (hα7-nAChR): full agonists | Emax (hα7-nAChR): 106% | Physiological effect α4L9'Aβ2* (α4L9'A knock-in mice [1]; mouse, in vivo): blocked the effects of 0.1 mg/kg nicotine; also recorded: block (0.002) | Ki (α6β2*-nAChR [2]): 0.052 ± 0.022 µM | Ki (α4β2*-nAChR [3]; [13]): 0.014 µM | Ki (α7-nAChR): 0.0022 ± 0.0005 µM | EC50 (α3β4*-nAChR; [14]): 2.2 ± 0.3 µM | Functional character at α3β4* (α3β4*-nAChR): full or nearly full agonists

c1cncc(C2C3CC4CC(C3)CN2C4)c1 (centres unmarked) [Compound 4, 1-aza-2-(3-pyridinyl)-tricyclo[3.3.1.13,7]decane]
Physiological effect α4L9'Aβ2* (α4L9'A knock-in mice [1]; mouse, in vivo): blocked the effects of 0.1 mg/kg nicotine; also recorded: block (0.01) | Ki (α6β2*-nAChR [2]): 0.57 ± 0.299 µM | Ki (α4β2*-nAChR [3]; [13]): 0.078 µM | Ki (α7-nAChR): 0.0645 ± 0.0055 µM | EC50 (α3β4*-nAChR; EC50 α3β4* [3H]-ACh release): 8.5 µM | EC50 (α3β4*-nAChR; [14]): 34 ± 8 µM | Functional character at α3β4* (α3β4*-nAChR): full or nearly full agonists

c1cncc(CC2CC3CCN2CC3)c1 (centres unmarked) [Compound 5, 2-(pyridin-3-ylmethyl)quinuclidine]
Physiological effect α4L9'Aβ2* (α4L9'A knock-in mice [1]; mouse, in vivo): did not have intrinsic activity, nor did they block the effect of nicotine; also recorded: no effect | Functional character at α3β4* (α3β4*-nAChR): full or nearly full agonists

c1ccc(-c2cncc(C3CC4CCN3CC4)c2)cc1 [Compound 6, (4S)-2-(5-phenylpyridin-3-yl)quinuclidine]
Efficacy α7 (hα7-nAChR): 18 ± 6% | EC50 (hα7-nAChR; peak current, GH4C1 cells): 29 ± 5.4 µM | Efficacy α6β2* (α6β2*-nAChR [2]): -100 ± 19% | Ki (α6β2*-nAChR [2]; read-out: Ki α6β2* (marked #)): 1.78 ± 1.74 µM | Efficacy α4β2* (first number, [3H]DA release) (α4β2*-nAChR [3]): -94 ± 2% | Ki (α4β2*-nAChR [3]; [9]): 0.23 µM | Decrease in α7 binding affinity relative to Compound 1 (α7-nAChR): approximately 50 fold | Efficacy α3β4* (α3β4*-nAChR): -100 ± 7% | Functional character at α3β4* (α3β4*-nAChR): full antagonists | Ki (α3β4*-nAChR; read-out: Ki α3β4* (marked #)): 0.66 ± 0.17 µM

N#Cc1ccc(Oc2cncc(C3CC4CCN3CC4)c2)cc1 (centres unmarked) [Compound 7, 4-(5-(quinuclidin-2-yl)pyridin-3-yloxy)benzonitrile]
Physiological effect α4L9'Aβ2* (α4L9'A knock-in mice [1]; mouse, in vivo): blocked the effects of 0.1 mg/kg nicotine; also recorded: block (0.01) | Antagonist potency at α6β2* relative to Compound 6 (times more potent) (α6β2*-nAChR [2]): 40 times | Ki (α6β2*-nAChR [2]): 0.048 ± 0.003 µM | Ki (α4β2*-nAChR [3]; [13]): 0.066 µM | Ki (α7-nAChR): 0.0234 ± 0.0079 µM | Physiological effect α6L9'Sβ2* (α6L9'S transgenic mice [5]): block (0.1) | Ki (α3β4*-nAChR): 7 ± 2 µM | Functional character at α3β4* (α3β4*-nAChR): full or nearly full agonists

CNCC/C=C/c1cccnc1 [Compound 8, (E)-N-methyl-4-(3-pyridinyl)-3-butene-1-amine]
Emax (hα7-nAChR): 17 ± 7% | Physiological effect α4L9'Aβ2* (α4L9'A knock-in mice [1]; mouse, in vivo): elicited responses; also recorded: hypothermia (0.2) | Functional character at α6β2* (α6β2*-nAChR [2]; α-CtxMII-sensitive DA release): no measurable activity | EC50 (α4β2*-nAChR [3]): 14.8 ± 10.1 µM | Ki (α7-nAChR): 3.07 ± 0.8 µM | Physiological effect α6L9'Sβ2* (α6L9'S transgenic mice [4]): elicited responses; also recorded: elicit a response; also recorded: activation (1.0) ^2 | Functional character at α3β4* (α3β4*-nAChR): partial agonists

CNC(C)C/C=C/c1cncc(C#Cc2ccccc2)c1 (centres unmarked) [Compound 9, (E)-N-methyl-5-(5-(phenylethynyl)pyridin-3-yl)pent-4-en-2-amine]
Efficacy α7 (hα7-nAChR): naa | EC50 α7 (hα7-nAChR; peak current, GH4C1 cells): naa | Physiological effect α4L9'Aβ2* (α4L9'A knock-in mice [1]; mouse, in vivo): did not have intrinsic activity, nor did they block the effect of nicotine; also recorded: no effect | Inhibition at α6β2* (partial antagonism) (α6β2*-nAChR [2]): ~50% | Ki (α6β2*-nAChR [2]): 4.1 ± 0.083 µM | Ki (α4β2*-nAChR [3]; [13]): 3.9 µM | Ki (α7-nAChR): 30.7 ± 4.1 µM | Ki (α3β4*-nAChR): 14 ± 0.3 µM | Functional character at α3β4* (α3β4*-nAChR): full antagonists

CN1[C@@H]2CC[C@H]1C=C(c1cncc(Br)c1)C2 [Compound 10, (1R,5S)-3-(5-bromopyridin-3-yl)-8-methyl-8-azabicyclo[3.2.1]oct-3-ene]
Emax (hα7-nAChR): 55 ± 9% | Physiological effect α4L9'Aβ2* (α4L9'A knock-in mice [1]; mouse, in vivo): elicited responses; also recorded: hypothermia (0.1) | EC50 (α6β2*-nAChR [2]; [11]): 0.117 ± 0.069 µM | EC50 (α6β2*-nAChR [2]; EC50 α-CtxMII-sensitive (α6β2*) [3H]-DA release): 0.12 µM | Functional character at α6β2* (α6β2*-nAChR [2]; α-CtxMII-sensitive DA release): partial agonist | Efficacy as % of Compound 8, α-CtxMII-resistant DA release (α4β2*-nAChR [3]): 25% | Increase in potency relative to Compound 8, α-CtxMII-resistant DA release (α4β2*-nAChR [3]): 83 fold | EC50 (α4β2*-nAChR [3]; [12]): 0.178 ± 0.094 µM | EC50 (α4β2*-nAChR [3]; EC50 α-CtxMII-resistant (α4β2*) [3H]-DA release): 0.18 µM | Ki (α7-nAChR): 0.128 ± 0.036 µM | Physiological effect α6L9'Sβ2* (α6L9'S transgenic mice [5]): elicited responses; also recorded: locomotor activation; also recorded: activation (0.1) | EC50 (α3β4*-nAChR; [14]): 7.2 ± 0.6 µM | Functional character at α3β4* (α3β4*-nAChR): partial agonists

CN1CCC[C@H]1c1cccnc1 [Nicotine, (-)-nicotine tartrate]
Temperature decrease in α4L9'A mice (α4L9'A knock-in mice [6]; 0.03 mg/kg): 3 °C | Physiological effect α4L9'Aβ2* (α4L9'A knock-in mice [6]): hypothermia (0.01) ^1 | Physiological effect α4L9'Aβ2* (α4L9'A knock-in mice [6]; listed as nicotine): hypothermia | Locomotor activation, % of saline activity in α6L9'S mice (α6L9'S transgenic mice [4]; 0.15 mg/kg ip): ~350% | Physiological effect α6L9'Sβ2* (α6L9'S transgenic mice [4]): activation (0.1) ^2 | Physiological effect α6L9'Sβ2* (α6L9'S transgenic mice [4]; listed as nicotine): locomotor hyperactivity | Temperature decrease in α6L9'S mice (α6L9'S mice): < 1 °C

c1cnc2cc3c(cc2n1)[C@@H]1CNC[C@H]3C1 [Varenicline, reference compound]
Emax (hα7-nAChR): 78 ± 24% | Physiological effect α4L9'Aβ2* (α4L9'A knock-in mice [1]; [10]): hypothermia (0.001) | EC50 (α6β2*-nAChR [2]): 0.077 ± 0.169 µM | EC50 (α4β2*-nAChR [3]): 0.05 ± 0.012 µM | Ki (α7-nAChR): 0.042 ± 0.005 µM | Physiological effect α6L9'Sβ2* (α6L9'S transgenic mice [5]): activation (0.1) | Physiological effect α6L9'Sβ2* (α6L9'S transgenic mice [5]; listed as varenicline): locomotor hyperactivity | EC50 (α3β4*-nAChR): 12 ± 0.3 µM

O=c1cccc2n1C[C@@H]1CNC[C@H]2C1 [cytisine]
Efficacy at α4β2*-nAChRs (α4β2*-nAChR [7]): 37% | Efficacy at α6β2* (α6β2*-nAChR [8]): 71%
